What was measured:
hKv3.1 = target: T1, hKv3.1 (Homo sapiens, UniProt P48547); test: Automated patch clamp (Patchliner) whole-cell electrophysiology, Kv3.1; format: cell-based; conditions: 10 μM compound, CHO-K1 cells stably expressing hKv3.1; for Kv3.1 Activity at 10 μM Potentiation (%): % potentiation of peak current at −10 mV voltage step vs vehicle; for Kv3.1 Activity at 10 μM Voltage Shift (mV): voltage shift of the IV curve at V1/2
T1 construct: expressed in transfected cells
T1 sequence (P48547 1-511): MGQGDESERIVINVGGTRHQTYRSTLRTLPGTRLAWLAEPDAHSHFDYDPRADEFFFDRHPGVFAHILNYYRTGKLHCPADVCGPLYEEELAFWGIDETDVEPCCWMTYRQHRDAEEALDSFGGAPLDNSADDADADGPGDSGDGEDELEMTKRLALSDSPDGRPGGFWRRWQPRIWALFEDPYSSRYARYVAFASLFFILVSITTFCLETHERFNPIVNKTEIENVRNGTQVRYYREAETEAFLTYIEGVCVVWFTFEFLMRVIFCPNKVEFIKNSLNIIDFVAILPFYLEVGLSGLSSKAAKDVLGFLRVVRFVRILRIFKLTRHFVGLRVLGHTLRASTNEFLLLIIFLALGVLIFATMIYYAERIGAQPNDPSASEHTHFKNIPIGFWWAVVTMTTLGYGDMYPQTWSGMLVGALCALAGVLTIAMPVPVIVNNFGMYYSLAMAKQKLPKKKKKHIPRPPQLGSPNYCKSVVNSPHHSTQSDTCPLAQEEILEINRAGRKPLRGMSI
Summary of the method: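 CHO-K1 cells stably expressing hKv3.x recorded by whole-cell automated patch clamp at 21-23 °C, held at −80 mV with 1000 ms steps from −60 to +60 mV, vehicle then 10 uM compound (0.33% DMSO, 3-min incubation), 4 cells. Currents normalized to +60 mV; % potentiation at −10 mV and Boltzmann V1/2 shift reported.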

hKv3.2 = target: T2, hKv3.2 (Homo sapiens, UniProt Q96PR1); test: Automated patch clamp (Patchliner) whole-cell electrophysiology, Kv3.2; format: cell-based; conditions: 10 μM compound, CHO-K1 cells stably expressing hKv3.2; for activation at 10 µM: % potentiation of peak current at −10 mV voltage step vs vehicle; for Kv3.2 Activity at 10 μM Voltage Shift (mV): voltage shift of the IV curve at V1/2
T2 construct: expressed in transfected cells
T2 sequence (Q96PR1 1-638): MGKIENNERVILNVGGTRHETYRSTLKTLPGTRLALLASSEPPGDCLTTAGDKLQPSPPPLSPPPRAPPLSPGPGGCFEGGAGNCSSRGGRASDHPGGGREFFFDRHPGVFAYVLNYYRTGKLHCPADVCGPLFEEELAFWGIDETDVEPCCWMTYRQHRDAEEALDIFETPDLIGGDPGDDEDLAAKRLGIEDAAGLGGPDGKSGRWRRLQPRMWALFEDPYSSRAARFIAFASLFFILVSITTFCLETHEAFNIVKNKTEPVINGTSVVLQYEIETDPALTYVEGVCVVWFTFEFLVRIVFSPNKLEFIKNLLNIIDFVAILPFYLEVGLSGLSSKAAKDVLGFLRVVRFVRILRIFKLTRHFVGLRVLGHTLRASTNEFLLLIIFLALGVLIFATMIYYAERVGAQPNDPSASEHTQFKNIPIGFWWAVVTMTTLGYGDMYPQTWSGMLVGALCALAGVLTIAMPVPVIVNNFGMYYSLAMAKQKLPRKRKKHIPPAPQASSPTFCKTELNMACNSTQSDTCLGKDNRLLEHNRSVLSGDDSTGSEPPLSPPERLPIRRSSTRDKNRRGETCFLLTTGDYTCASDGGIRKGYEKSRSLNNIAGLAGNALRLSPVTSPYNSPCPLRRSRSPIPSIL
Method: hKv3.1, hKv3.2, hKv3.3, and hKv3.4 were stably expressed in CHO-K1 (Chinese hamster ovary) cells and kept under constant antibiotic selection. For in vitro assays, cells were maintained in appropriate growth medium at 37° C. and 5% CO2 in a humidified incubator.
hKv3.X expressing cells were plated in T-25 flasks for 3-4 days at 37° C. (no selection antibiotic) prior to use and grown to 80% confluence. Cells were washed twice with PBS (calcium and magnesium free) and detached with a 5-minute treatment at 37° C. with 2-3 mls of Accutase®. Cells were collected, and flask was washed in CHO-SFM II media (Life Technologies Gibco), centrifuged for 2 minutes at ˜110×g and resuspended to obtain a single cell suspension of ˜2-3×10^6 cells/ml.
The intracellular solution contained the following (in mM): KCl 50, NaCl 10, KF 60, EGTA 20, HEPES 10, adjusted to pH 7.2 with KOH and an osmolarity of 285 mOsmol. Seal enhancer was purchased from Nanion (80 mM NaCl, 3 mM KCl, 10 mM MgCl2, 35 mM CaCl2), 10 mM HEPES, pH7.4, 298 mOsmol. The external solution contained (in mM): NaCl 140, KCl 4, CaCl2) 2, MgCl2 1, HEPES 10, Glucose 5, adjusted to pH7.4 and an osmolarity of 298 mOsmol.
All compounds were initially tested at 10 uM at a final DMSO concentration of 0.33%. Compounds were dissolved in dimethylsulfoxide (DMSO) at a stock concentration of 30 mM. The compound was further diluted 1:10 to give a stock concentration of 3 mM in DMSO. The final assay solution was diluted 1:300 in External solution to give a final concentration of 10 uM. For the DMSO Control Buffer 30 uL of DMSO was added to 10 mL buffer.
All electrophysiological recordings were performed at ambient temperature (21-23° C.) using automated patch clamp (Patchliner, Nanion Technologies GmbH) in the whole-cell configuration.
Cell membrane potentials were held at −80 mV, and currents were evoked by voltage steps (1000 ms duration) from −60 to +60 mV in 10 mV increments. This was performed first with vehicle (0.33% DMSO) and then with 10 uM compound, after a 3-minute incubation period. Data was taken from 4 cells per assay.
The recordings were analysed and selected using peak current amplitude (>100 pA at the −10 mV voltage step) in the absence of compound to eliminate unsuitable cells from analysis. Peak current amplitude was measured and recorded for each voltage step and data was normalised to the maximum current at +60 mV. The normalised Kv3.x currents following addition of the compound were then compared with the currents recorded prior to compound addition (vehicle control). Positive modulation was determined as % potentiation at the voltage step of −10 mV=[current (cmpd)/current (veh)]*100−100. % potentiation ≥50% was considered acceptable. In addition, voltage shift of the IV curve at V1/2 was measured. V1/2 of ≥−5 mV was also considered acceptable. IV curves were plotted in GraphPad Prism (software version 6.0) and fitted with a Boltzmann equation, where V1/2 is the voltage at half-maximal activation.

| Compound | Kv3.1 Activity at 10 μM Potentiation (%) (hKv3.1) | Kv3.1 Activity at 10 μM Voltage Shift (mV) (hKv3.1) | activation at 10 µM (hKv3.2) [%] | Kv3.2 Activity at 10 μM Voltage Shift (mV) (hKv3.2) |
| --- | --- | --- | --- | --- |
| CC[C@@]1(C)NC(=O)N(c2cccc(Oc3cc(OC)cc(OC)c3)n2)C1=O [Example 70, (5R)-3-[6-(3,5-dimethoxyphenoxy)-2-pyridyl]-5-ethyl-5-methyl-imidazolidine-2,4-dione] | 44 | −2.08 | 34 | −2.42 |
| CC1(C)NC(=O)N(c2ccc(F)c(Oc3ccc4c(c3)OC(F)(F)O4)n2)C1=O [Example 84, 3-[6-[(2,2-difluoro-1,3-benzodioxol-5-yl)oxy]-5-fluoro-2-pyridyl]-5,5-dimethyl-imidazolidine-2,4-dione] | 30 | −2.27 | 14 | −1.69 |
| O=C1NC2(CCCC2)C(=O)N1c1ccnc(Oc2ccc3c(c2)OC(F)(F)O3)c1F [Example 92, 3-[2-[(2,2-difluoro-1,3-benzodioxol-5-yl)oxy]-3-fluoro-4-pyridyl]-1,3-diazaspiro[4.4]nonane-2,4-dione] | 227 | −7.49 | 93 | −5.37 |
| O=C1NC2(CCCCC2)C(=O)N1c1ccnc(Oc2ccc3c(c2)OC(F)(F)O3)c1F [Example 93, 3-[2-[(2,2-difluoro-1,3-benzodioxol-5-yl)oxy]-3-fluoro-4-pyridyl]-1,3-diazaspiro[4.5]decane-2,4-dione] | 142 | −8.79 | 71 | −6.55 |

Other lines, results leading:

| Kv3.1 Activity at 10 μM Potentiation (%) (hKv3.1) | Kv3.1 Activity at 10 μM Voltage Shift (mV) (hKv3.1) | activation at 10 µM (hKv3.2) [%] | Kv3.2 Activity at 10 μM Voltage Shift (mV) (hKv3.2) | Compound |
| --- | --- | --- | --- | --- |
| 15 | −4.01 | 5 | 0 | COc1cc(Oc2cccc(N3C(=O)NC4(CCCCC4)C3=O)n2)ccc1C [Example 75, 3-[6-(3-methoxy-4-methyl-phenoxy)-2-pyridyl]-1,3-diazaspiro[4.5]decane-2,4-dione] |
| 217 | −10.39 | 121 | −7.43 | COc1cc(Oc2nccc(N3C(=O)NC4(CCCC4)C3=O)c2F)ccc1C [Example 90, 3-[3-fluoro-2-(3-methoxy-4-methyl-phenoxy)-4-pyridyl]-1,3-diazaspiro[4.4]nonane-2,4-dione] |
| 150 | −10.63 | 137 | −6.75 | COc1cc(Oc2nccc(N3C(=O)NC4(CCCCC4)C3=O)c2F)ccc1C [Example 91, 3-[3-fluoro-2-(3-methoxy-4-methyl-phenoxy)-4-pyridyl]-1,3-diazaspiro[4.5]decane-2,4-dione] |

— patent US12090146B2, “Substituted-pyridinyl compounds and uses thereof” (Bionomics Limited, priority 2018, dated 2024)
